# Measurements: PMC9297976 (Journal of Applied Toxicology, 2021)
# How the values were obtained:
# medaka ARβ (mArβ) [1] = molecular target: T1, medaka ARβ (mArβ) (Oryzias latipes, UniProt D1MV73); experiment: Medaka ARβ reporter gene assay, agonist assay; format: cell-based, Japanese medaka (Oryzias latipes)
# T1 sequence (D1MV73 1-744): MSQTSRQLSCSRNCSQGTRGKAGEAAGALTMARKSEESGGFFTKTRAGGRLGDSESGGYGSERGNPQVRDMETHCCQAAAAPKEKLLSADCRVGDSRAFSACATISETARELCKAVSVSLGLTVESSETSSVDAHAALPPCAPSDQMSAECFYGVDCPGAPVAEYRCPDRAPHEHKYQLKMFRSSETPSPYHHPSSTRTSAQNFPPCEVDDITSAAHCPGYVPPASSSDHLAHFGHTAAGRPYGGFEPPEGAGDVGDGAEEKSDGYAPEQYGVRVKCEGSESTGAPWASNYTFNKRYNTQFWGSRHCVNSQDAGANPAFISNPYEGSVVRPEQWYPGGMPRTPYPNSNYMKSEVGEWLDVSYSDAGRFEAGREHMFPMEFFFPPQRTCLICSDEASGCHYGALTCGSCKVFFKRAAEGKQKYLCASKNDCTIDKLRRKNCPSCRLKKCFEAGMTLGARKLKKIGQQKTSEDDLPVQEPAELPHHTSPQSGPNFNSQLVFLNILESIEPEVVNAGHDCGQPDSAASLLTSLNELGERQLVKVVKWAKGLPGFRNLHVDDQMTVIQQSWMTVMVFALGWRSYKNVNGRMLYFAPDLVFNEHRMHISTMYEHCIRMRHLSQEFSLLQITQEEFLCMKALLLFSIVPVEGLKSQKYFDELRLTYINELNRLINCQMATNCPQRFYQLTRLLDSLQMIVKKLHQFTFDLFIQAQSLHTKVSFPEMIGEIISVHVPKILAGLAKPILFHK
# medaka Esr1 (mEsr1) [2] = molecular target: T2, medaka Esr1 (mEsr1) (Oryzias latipes, UniProt P50241); experiment: Medaka Esr1 reporter gene assay, antagonist assay; format: cell-based, Japanese medaka (Oryzias latipes); conditions: E2 spiked at 1.0 nM (B); MAC = 1.0 × 10^−5 M
# T2 sequence (P50241 1-620): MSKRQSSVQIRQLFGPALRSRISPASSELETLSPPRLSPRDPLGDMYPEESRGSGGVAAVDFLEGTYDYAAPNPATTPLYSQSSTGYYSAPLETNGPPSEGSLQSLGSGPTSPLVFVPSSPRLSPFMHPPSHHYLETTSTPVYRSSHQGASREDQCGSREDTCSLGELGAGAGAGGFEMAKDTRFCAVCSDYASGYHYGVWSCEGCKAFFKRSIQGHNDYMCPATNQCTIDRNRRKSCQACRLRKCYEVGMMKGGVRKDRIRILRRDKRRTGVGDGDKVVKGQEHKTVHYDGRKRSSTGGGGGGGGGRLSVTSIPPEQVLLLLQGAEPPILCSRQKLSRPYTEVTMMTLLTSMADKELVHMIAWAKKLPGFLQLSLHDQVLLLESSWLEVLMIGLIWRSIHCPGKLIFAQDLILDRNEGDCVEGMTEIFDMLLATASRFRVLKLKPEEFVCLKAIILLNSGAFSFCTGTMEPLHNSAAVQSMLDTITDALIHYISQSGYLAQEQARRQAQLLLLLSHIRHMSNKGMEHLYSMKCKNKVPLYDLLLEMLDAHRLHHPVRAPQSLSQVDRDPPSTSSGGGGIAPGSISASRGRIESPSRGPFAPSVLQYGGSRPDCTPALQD
# medaka ARβ (mArβ) [3] = molecular target: T1, medaka ARβ (mArβ); experiment: Medaka ARβ reporter gene assay, antagonist assay; format: cell-based, Japanese medaka (Oryzias latipes)
# [4] = system: Japanese medaka (Oryzias latipes); experiment: Fish Short‐Term Reproduction Assay; format: in vivo; conditions: for GSI Female / GSI Male / HSI Female / HSI Male / Length Female / Length Male / Weight Female / Weight Male: completion of exposure
# medaka Esr1 (mEsr1) [5] = molecular target: T2, medaka Esr1 (mEsr1); experiment: cell-based; set-up: species or system Japanese medaka (Oryzias latipes); conditions: for In vitro positive: Esr: mode of action in which EC50 or PC10 was obtained in RGA; for EC50: read-out: Agonistic activity EC50, HEK293 cells
# [6] = 18.8 μg/L measured, 21 d, sig. ↑ vs control
# [7] = 51.8 μg/L measured, 21 d, sig. ↑ vs control
# [8] = 51.8 μg/L measured, 21 d, sig. ↓ vs control
# [9] = 170 μg/L measured, 21 d, sig. ↑ vs control
# [10] = measured concentration 5.63 μg/L
# [11] = measured concentration 18.8 μg/L
# [12] = measured concentration 51.8 μg/L
# [13] = measured concentration 170 μg/L
compound,measurement,setting,value
4‐Nonylphenol (branched) [Chemical 4NP],Agonistic activity,medaka ARβ (mArβ) [1]; MAC = 1.0 × 10^−5 M,NE (MAC = 1.0 × 10^−5 M)
same,Antagonistic activity,medaka Esr1 (mEsr1) [2],NE (MAC = 1.0 × 10^−5 M)^(B)
same,Antagonistic activity,"medaka ARβ (mArβ) [3]; 11‐KT spiked at 50 nM (D), MAC = 1.0 × 10^−5 M",NE (MAC = 1.0 × 10^−5 M)^(D)
same,Fertility rate,"[4]; 5.63 μg/L measured, 21 d",97 ± 2.2%
same,"Hepatic VTG, female","[4]; 5.63 μg/L measured, 21 d",866 ± 277 ng/mg‐liver
same,Mortality,"[4]; 5.63 μg/L measured, 21 d",0.0%
same,"Mortality, number of dead fish","[4]; 5.63 μg/L measured, 21 d",0
same,Number of fertilized eggs (per female per day),"[4]; 5.63 μg/L measured, 21 d",20 ± 1.2
same,Number of total eggs (per female per day),"[4]; 5.63 μg/L measured, 21 d",21 ± 0.9
same,SSC female (joint plates with papillary processes),"[4]; 5.63 μg/L measured, 21 d",0 ± 0
same,SSC male (joint plates with papillary processes),"[4]; 5.63 μg/L measured, 21 d",92 ± 15
same,"Hepatic VTG, male","[4]; 5.63 μg/L measured, 21 d, sig. ↑ vs control",32 ± 31 ng/mg‐liver
same,Fertility rate,"[4]; 18.8 μg/L measured, 21 d",94 ± 7.7%
same,Mortality,"[4]; 18.8 μg/L measured, 21 d",0.0%
same,"Mortality, number of dead fish","[4]; 18.8 μg/L measured, 21 d",0
same,Number of fertilized eggs (per female per day),"[4]; 18.8 μg/L measured, 21 d",17 ± 5.4
same,Number of total eggs (per female per day),"[4]; 18.8 μg/L measured, 21 d",18 ± 4.9
same,SSC female (joint plates with papillary processes),"[4]; 18.8 μg/L measured, 21 d",0 ± 0
same,SSC male (joint plates with papillary processes),"[4]; 18.8 μg/L measured, 21 d",79 ± 21
same,"Hepatic VTG, female",[4]; [6],"1,153 ± 300 ng/mg‐liver"
same,"Hepatic VTG, male",[4]; [6],375 ± 320 ng/mg‐liver
same,Mortality,"[4]; 51.8 μg/L measured, 21 d",0.0%
same,"Mortality, number of dead fish","[4]; 51.8 μg/L measured, 21 d",0
same,SSC female (joint plates with papillary processes),"[4]; 51.8 μg/L measured, 21 d",0 ± 0
same,SSC male (joint plates with papillary processes),"[4]; 51.8 μg/L measured, 21 d",97 ± 13
same,"Hepatic VTG, female",[4]; [7],"1,348 ± 258 ng/mg‐liver"
same,"Hepatic VTG, male",[4]; [7],"2,431 ± 1,455 ng/mg‐liver"
same,Fertility rate,[4]; [8],61 ± 10%
same,Number of total eggs (per female per day),[4]; [8],13 ± 3.0
same,Mortality,"[4]; 170 μg/L measured, 21 d",4.2%
same,"Mortality, number of dead fish","[4]; 170 μg/L measured, 21 d",1
same,SSC female (joint plates with papillary processes),"[4]; 170 μg/L measured, 21 d",0 ± 0
same,SSC male (joint plates with papillary processes),"[4]; 170 μg/L measured, 21 d",87 ± 12
same,"Hepatic VTG, female",[4]; [9],"1,212 ± 506 ng/mg‐liver"
same,"Hepatic VTG, male",[4]; [9],"5,009 ± 1830 ng/mg‐liver"
same,Fertility rate,"[4]; 170 μg/L measured, 21 d, sig. ↓ vs control",33 ± 9.7%
same,Change of hepatic VTG levels in females (in words),[4]; 21 d,significant increase
same,"Fecundity, number of total eggs (in words)",[4]; 21 d,statistically significant decrease
same,"LOEC, elevated hepatic VTG in males",[4]; 21 d,5.63 µg/L
same,LOECmVTG,[4]; LOEC on VTG induction in males,5.63 µg/L
same,LOECREPRO,[4]; LOEC on reproduction (fecundity and/or fertility),51.8 µg/L
same,LOECTOX,[4]; lowest observed effect concentration on mortality,ND (>170) μg/L
same,GSI Female,[4]; [10],7.8 ± 1.6%
same,GSI Male,[4]; [10],1.02 ± 0.07%
same,HSI Female,[4]; [10],3.4 ± 0.55%
same,HSI Male,[4]; [10],1.7 ± 0.10%
same,Length Female,[4]; [10],36.7 ± 1.3 mm
same,Length Male,[4]; [10],36.8 ± 1.3 mm
same,Weight Female,[4]; [10],535 ± 82 mg
same,Weight Male,[4]; [10],515 ± 45 mg
same,GSI Female,[4]; [11],8.9 ± 0.6%
same,GSI Male,[4]; [11],1.08 ± 0.06%
same,HSI Female,[4]; [11],4.1 ± 0.59%
same,HSI Male,[4]; [11],1.7 ± 0.28%
same,Length Female,[4]; [11],35.5 ± 1.2 mm
same,Length Male,[4]; [11],37.5 ± 0.6 mm
same,Weight Female,[4]; [11],500 ± 46 mg
same,Weight Male,[4]; [11],552 ± 34 mg
same,GSI Female,[4]; [12],7.7 ± 0.6%
same,GSI Male,[4]; [12],1.15 ± 0.20%
same,HSI Female,[4]; [12],4.2 ± 0.66%
same,HSI Male,[4]; [12],2.0 ± 0.22%
same,Length Female,[4]; [12],36.4 ± 0.8 mm
same,Length Male,[4]; [12],37.6 ± 1.2 mm
same,Weight Female,[4]; [12],537 ± 45 mg
same,Weight Male,[4]; [12],552 ± 69 mg
same,GSI Female,[4]; [13],7.9 ± 1.5%
same,GSI Male,[4]; [13],1.05 ± 0.15%
same,HSI Female,[4]; [13],3.9 ± 0.58%
same,HSI Male,[4]; [13],2.4 ± 0.10%
same,Length Female,[4]; [13],36.0 ± 1.6 mm
same,Length Male,[4]; [13],38.6 ± 1.5 mm
same,Weight Female,[4]; [13],540 ± 64 mg
same,Weight Male,[4]; [13],602 ± 64 mg
same,In vitro positive: Esr,medaka Esr1 (mEsr1) [5],Esr
same,EC50,medaka Esr1 (mEsr1) [5],0.022 µM
"Oc1cccc2ccccc12 [Chemical 1NT, 1‐Naphtol]",Agonistic activity PC10,"medaka ARβ (mArβ) [1]; HepG2 cells, concentration with 10% of maximum activity of 11KT",PC10 = 3.3 × 10^−5 M
same,Agonistic activity on mArβ (in words),medaka ARβ (mArβ) [1]; only PC10 and not EC50 could be estimated,positive agonistic activity
same,Antagonistic activity,medaka Esr1 (mEsr1) [2],NE (MAC = 1.0 × 10^−5 M)^(B)
same,Antagonistic activity,"medaka ARβ (mArβ) [3]; 11‐KT spiked at 10 nM (C), MAC = 1.0 × 10^−4 M",NE (MAC = 1.0 × 10^−4 M)^(C)
same,In vitro positive: Esr,medaka Esr1 (mEsr1) [5],Esr
same,EC50,medaka Esr1 (mEsr1) [5],78 µM
